# Source: paper PMC3119665, “A New Drug Design Targeting the Adenosinergic System for Huntington's Disease” (PLoS ONE, 2011)
# pIC50, pKi: −log10 of the molar value.
# Legend:
# Cannabinoid CB1 = molecular target: T1, Cannabinoid CB1 (Homo sapiens, UniProt P21554); experiment: Radioligand binding panel (Table S1); conditions: 10 μM T1-11, n 2
# T1 construct: purchased MDS Pharma Services Taiwan
# Somatostatin sst3 = molecular target: T2, Somatostatin sst3 (Homo sapiens, UniProt P32745); experiment: Radioligand binding panel (Table S1); conditions: 10 μM T1-11, n 2
# T2 construct: purchased MDS Pharma Services Taiwan
# human A3R = molecular target: T3, human A3R (Homo sapiens, UniProt P0DMS8); experiment: GTPγS binding assay; assay type: biochemical
# T3 construct: host or cells: CHO-K1
# Method: The GTPγS binding assay was conducted by MDS Pharma Services Taiwan using a previously described protocol with slight modifications. In brief, membrane proteins collected from Chinese hamster ovary (CHO-K1) cells expressing the human A3R (5∼10 µg per reaction) were incubated with the indicated drug and ^35S-GTPγS (0.1 nM) in a total volume of 500 µl for 30 min at 30°C. The reaction buffer was composed of 20 mM HEPES (pH 7.4), 100 mM NaCl, 10 mM MgCl2, 1 mM DTT, and 1 mM EDTA. The reaction was terminated by filtration over GF/B glass fibers and washed with the same reaction buffer. Relative GTPγS binding was defined as the percentage of ^35S-GTPγS binding when compared to that of a selective agonist of the A3R (2-Cl-IB-MECA, 3 µM) under the same binding conditions.
# Supplementary file pone.0020934.s004.tif: Figure S4 T1-11 binds to the A3 adenosine receptor (A3R) without evoking a significant binding of GTP. Membrane fractions collected from CHO-K1 cells expressing the human A3R were incubated with T1-11 at the indicated concentration and ^35S-GTPγS (0.1 nM) for 30 min at 30°C. Relative GTPγS binding was defined as the percentage of ^35S-GTPγS binding when compared with a selective agonist of the A3R (2-Cl-IB-MECA, 3 µM). (TIF) Click here for additional data file.
# Lipoxygenase 12-LO = molecular target: T4, Lipoxygenase 12-LO (Homo sapiens, UniProt P18054); experiment: Radioligand binding panel (Table S1); conditions: 10 μM T1-11, n 2
# T4 construct: purchased MDS Pharma Services Taiwan
# Chemokine CXCR2 (IL-8RB) = molecular target: T5, Chemokine CXCR2 (IL-8RB) (Homo sapiens, UniProt P25025); experiment: Radioligand binding panel (Table S1); conditions: 10 μM T1-11, n 2
# T5 construct: purchased MDS Pharma Services Taiwan
# Glucocorticoid = molecular target: T6, Glucocorticoid (Homo sapiens, UniProt P04150); experiment: Radioligand binding panel (Table S1); conditions: 10 μM T1-11, n 2
# T6 construct: purchased MDS Pharma Services Taiwan
# Potassium Channel [KA] = experiment: Radioligand binding panel (Table S1); set-up: species or system rat; conditions: 10 μM T1-11, n 2
# Dopamine D5 = molecular target: T7, Dopamine D5 (Homo sapiens, UniProt P21918); experiment: Radioligand binding panel (Table S1); conditions: 10 μM T1-11, n 2
# T7 construct: purchased MDS Pharma Services Taiwan
# [1] = molecular target: T8, G Protein-Coupled Receptor, GPR8 (Homo sapiens, UniProt P48146); experiment: Radioligand binding panel (Table S1); conditions: 10 μM T1-11, n 2
# T8 construct: purchased MDS Pharma Services Taiwan
# Dopamine D3 = molecular target: T9, Dopamine D3 (Homo sapiens, UniProt P35462); experiment: Radioligand binding panel (Table S1); conditions: 10 μM T1-11, n 2
# T9 construct: purchased MDS Pharma Services Taiwan
# Somatostatin sst4 = molecular target: T10, Somatostatin sst4 (Homo sapiens, UniProt P31391); experiment: Radioligand binding panel (Table S1); conditions: 10 μM T1-11, n 2
# T10 construct: purchased MDS Pharma Services Taiwan
# [2] = system: Glutamate, NMDA, Polyamine; experiment: Radioligand binding panel (Table S1); set-up: species or system rat; conditions: 10 μM T1-11, n 2
# [3] = molecular target: T11, Serotonin (5-Hydroxytryptamine) 5-HT5A (Homo sapiens, UniProt P47898); experiment: Radioligand binding panel (Table S1); conditions: 10 μM T1-11, n 2
# T11 construct: purchased MDS Pharma Services Taiwan
# Prostanoid CRTH2 = molecular target: T12, Prostanoid CRTH2 (Homo sapiens, UniProt Q9Y5Y4); experiment: Radioligand binding panel (Table S1); conditions: 10 μM T1-11, n 2
# T12 construct: purchased MDS Pharma Services Taiwan
# Melanocortin MC3 = molecular target: T13, Melanocortin MC3 (Homo sapiens, UniProt P41968); experiment: Radioligand binding panel (Table S1); conditions: 10 μM T1-11, n 2
# T13 construct: purchased MDS Pharma Services Taiwan
# A1 adenosine receptor = molecular target: T14, A1 adenosine receptor (Homo sapiens, UniProt P30542); experiment: Radioligand binding assay
# T14 construct: MDS Pharma Services Taiwan
# T14 sequence (P30542 1-326): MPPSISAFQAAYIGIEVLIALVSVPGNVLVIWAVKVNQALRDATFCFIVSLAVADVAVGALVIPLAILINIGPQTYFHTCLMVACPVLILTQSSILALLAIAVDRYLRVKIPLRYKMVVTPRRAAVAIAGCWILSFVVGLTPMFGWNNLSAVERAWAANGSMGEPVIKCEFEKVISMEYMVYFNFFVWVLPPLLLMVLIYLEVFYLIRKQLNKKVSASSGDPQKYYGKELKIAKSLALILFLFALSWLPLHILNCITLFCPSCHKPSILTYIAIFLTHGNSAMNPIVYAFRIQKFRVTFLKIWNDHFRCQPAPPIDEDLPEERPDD
# Chemokine CCR2B = molecular target: T15, Chemokine CCR2B (Homo sapiens, UniProt P41597); experiment: Radioligand binding panel (Table S1); conditions: 10 μM T1-11, n 2
# T15 construct: purchased MDS Pharma Services Taiwan
# Neuromedin U NMU1 = molecular target: T16, Neuromedin U NMU1 (Homo sapiens, UniProt Q9HB89); experiment: Radioligand binding panel (Table S1); conditions: 10 μM T1-11, n 2
# T16 construct: purchased MDS Pharma Services Taiwan
# A3 adenosine receptor = molecular target: T17, A3 adenosine receptor (Homo sapiens, UniProt P0DMS8); experiment: Radioligand binding assay
# T17 construct: host or cells: CHO-K1
# T17 sequence (P0DMS8 1-318): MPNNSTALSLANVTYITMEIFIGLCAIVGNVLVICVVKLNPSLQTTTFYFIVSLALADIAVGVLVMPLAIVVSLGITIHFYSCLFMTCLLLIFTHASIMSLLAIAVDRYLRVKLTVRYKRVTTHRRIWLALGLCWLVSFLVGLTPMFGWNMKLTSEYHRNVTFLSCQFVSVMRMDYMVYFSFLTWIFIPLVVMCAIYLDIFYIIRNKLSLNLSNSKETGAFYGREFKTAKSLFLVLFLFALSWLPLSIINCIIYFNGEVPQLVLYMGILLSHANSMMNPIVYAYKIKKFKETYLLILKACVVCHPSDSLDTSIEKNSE
# [4] = system: Tumor Necrosis Factor (TNF), Non-Selective; experiment: Radioligand binding panel (Table S1); set-up: species or system human; conditions: 10 μM T1-11, n 2
# Muscarinic M5 = molecular target: T18, Muscarinic M5 (Homo sapiens, UniProt P08912); experiment: Radioligand binding panel (Table S1); conditions: 10 μM T1-11, n 2
# T18 construct: purchased MDS Pharma Services Taiwan
# Anaphylatoxin C5a = molecular target: T19, Anaphylatoxin C5a (Homo sapiens, UniProt P21730); experiment: Radioligand binding panel (Table S1); conditions: 10 μM T1-11, n 2
# T19 construct: purchased MDS Pharma Services Taiwan
# Phosphodiesterase PDE3 = molecular target: T20, Phosphodiesterase PDE3 (Homo sapiens, UniProt Q14432); experiment: Radioligand binding panel (Table S1); conditions: 10 μM T1-11, n 2
# T20 construct: purchased MDS Pharma Services Taiwan
# [5] = n.s. = not significant, no significant binding at 10 µM
# [6] = CHO-K1 membranes, 3H-AB-MECA 0.5 nM
# T5 sequence (P25025 whole entry): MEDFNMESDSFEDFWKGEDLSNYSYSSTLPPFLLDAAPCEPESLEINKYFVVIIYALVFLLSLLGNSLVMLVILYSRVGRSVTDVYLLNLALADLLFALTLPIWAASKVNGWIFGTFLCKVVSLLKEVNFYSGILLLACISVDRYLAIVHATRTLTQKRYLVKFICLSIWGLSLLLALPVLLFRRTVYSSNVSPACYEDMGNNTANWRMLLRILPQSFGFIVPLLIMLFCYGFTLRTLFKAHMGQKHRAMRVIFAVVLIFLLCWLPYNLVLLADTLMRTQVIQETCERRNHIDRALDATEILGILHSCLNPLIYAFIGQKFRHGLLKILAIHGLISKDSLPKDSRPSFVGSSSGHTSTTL
# T11 sequence (P47898 whole entry): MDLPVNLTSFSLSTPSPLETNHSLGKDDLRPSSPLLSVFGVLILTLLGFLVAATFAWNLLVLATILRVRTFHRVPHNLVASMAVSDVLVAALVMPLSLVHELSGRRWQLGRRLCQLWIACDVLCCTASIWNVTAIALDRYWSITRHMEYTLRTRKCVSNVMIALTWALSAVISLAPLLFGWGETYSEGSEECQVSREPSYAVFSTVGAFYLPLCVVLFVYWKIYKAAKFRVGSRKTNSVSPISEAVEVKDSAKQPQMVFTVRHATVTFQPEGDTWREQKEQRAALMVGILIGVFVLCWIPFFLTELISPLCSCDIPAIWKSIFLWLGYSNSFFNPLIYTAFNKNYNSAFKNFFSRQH
# T15 sequence (P41597 1-360 isoform P41597-2): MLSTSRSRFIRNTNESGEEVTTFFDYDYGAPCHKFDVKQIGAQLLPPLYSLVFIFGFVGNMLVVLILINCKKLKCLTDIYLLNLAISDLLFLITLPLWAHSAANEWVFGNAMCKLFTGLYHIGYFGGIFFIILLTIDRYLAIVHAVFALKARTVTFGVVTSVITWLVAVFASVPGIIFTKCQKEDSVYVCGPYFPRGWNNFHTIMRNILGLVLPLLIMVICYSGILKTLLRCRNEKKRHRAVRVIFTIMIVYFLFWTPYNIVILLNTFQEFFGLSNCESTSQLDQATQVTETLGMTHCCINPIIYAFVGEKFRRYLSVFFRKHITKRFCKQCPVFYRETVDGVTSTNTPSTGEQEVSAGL
# T1 sequence (P21554 whole entry): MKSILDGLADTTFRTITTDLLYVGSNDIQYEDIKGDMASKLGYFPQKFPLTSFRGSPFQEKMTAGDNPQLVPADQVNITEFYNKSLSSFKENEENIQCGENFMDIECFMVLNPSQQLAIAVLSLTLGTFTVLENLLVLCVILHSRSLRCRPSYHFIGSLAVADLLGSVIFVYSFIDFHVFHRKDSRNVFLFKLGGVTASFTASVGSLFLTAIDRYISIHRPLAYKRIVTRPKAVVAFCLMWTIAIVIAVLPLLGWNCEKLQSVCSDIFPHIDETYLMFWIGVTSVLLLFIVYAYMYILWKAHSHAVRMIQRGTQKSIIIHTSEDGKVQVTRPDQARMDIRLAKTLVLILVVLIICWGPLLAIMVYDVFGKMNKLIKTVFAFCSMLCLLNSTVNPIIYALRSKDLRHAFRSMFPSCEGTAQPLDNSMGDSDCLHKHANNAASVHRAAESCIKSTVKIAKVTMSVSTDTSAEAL
# T20 sequence (Q14432 whole entry): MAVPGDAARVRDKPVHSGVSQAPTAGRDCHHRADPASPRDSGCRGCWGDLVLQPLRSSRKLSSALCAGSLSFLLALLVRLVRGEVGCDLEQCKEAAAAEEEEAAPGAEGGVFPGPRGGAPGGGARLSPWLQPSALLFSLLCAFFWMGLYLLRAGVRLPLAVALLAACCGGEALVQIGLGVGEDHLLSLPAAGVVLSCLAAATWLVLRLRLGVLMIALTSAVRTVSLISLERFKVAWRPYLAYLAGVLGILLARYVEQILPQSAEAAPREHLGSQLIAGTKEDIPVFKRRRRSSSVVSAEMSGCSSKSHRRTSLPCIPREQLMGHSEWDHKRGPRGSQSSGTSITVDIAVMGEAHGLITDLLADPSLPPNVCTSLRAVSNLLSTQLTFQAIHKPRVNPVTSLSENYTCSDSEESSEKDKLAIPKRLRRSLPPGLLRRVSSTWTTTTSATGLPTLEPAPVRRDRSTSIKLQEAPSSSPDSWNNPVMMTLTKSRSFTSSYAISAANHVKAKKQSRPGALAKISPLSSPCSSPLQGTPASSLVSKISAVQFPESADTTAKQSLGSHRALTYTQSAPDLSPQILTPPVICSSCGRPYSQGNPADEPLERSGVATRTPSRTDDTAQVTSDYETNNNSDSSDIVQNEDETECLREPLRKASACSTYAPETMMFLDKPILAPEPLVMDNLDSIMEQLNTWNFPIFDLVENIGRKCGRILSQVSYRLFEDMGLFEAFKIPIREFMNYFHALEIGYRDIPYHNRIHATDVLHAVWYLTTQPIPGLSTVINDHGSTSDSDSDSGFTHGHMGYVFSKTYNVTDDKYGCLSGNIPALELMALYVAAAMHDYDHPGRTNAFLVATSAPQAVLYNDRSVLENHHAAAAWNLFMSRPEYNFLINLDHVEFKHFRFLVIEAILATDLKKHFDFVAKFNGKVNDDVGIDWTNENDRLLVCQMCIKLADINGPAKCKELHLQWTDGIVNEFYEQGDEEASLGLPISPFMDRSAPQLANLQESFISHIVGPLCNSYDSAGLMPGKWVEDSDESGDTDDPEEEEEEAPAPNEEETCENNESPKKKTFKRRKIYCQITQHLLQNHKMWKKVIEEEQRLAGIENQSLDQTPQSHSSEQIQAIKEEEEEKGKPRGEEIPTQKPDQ
# T19 sequence (P21730 whole entry): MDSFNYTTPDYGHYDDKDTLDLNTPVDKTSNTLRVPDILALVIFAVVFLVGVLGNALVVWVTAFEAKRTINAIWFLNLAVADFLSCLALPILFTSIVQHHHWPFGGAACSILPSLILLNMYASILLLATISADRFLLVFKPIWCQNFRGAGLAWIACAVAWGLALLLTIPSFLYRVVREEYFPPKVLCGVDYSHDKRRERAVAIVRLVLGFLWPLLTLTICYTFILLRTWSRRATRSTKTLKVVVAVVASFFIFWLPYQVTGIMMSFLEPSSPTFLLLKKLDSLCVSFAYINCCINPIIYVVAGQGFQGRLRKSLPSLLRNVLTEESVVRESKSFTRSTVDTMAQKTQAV
# T2 sequence (P32745 whole entry): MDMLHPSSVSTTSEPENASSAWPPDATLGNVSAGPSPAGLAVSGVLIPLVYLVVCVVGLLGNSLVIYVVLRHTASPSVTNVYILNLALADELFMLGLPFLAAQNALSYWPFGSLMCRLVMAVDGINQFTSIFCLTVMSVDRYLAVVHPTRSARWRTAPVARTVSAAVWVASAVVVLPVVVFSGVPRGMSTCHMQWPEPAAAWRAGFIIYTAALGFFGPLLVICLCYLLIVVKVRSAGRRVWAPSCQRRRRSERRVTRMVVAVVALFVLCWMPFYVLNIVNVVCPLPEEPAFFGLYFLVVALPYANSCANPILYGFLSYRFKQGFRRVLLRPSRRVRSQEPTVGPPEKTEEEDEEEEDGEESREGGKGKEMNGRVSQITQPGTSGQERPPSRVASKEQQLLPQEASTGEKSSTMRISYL
# T18 sequence (P08912 whole entry): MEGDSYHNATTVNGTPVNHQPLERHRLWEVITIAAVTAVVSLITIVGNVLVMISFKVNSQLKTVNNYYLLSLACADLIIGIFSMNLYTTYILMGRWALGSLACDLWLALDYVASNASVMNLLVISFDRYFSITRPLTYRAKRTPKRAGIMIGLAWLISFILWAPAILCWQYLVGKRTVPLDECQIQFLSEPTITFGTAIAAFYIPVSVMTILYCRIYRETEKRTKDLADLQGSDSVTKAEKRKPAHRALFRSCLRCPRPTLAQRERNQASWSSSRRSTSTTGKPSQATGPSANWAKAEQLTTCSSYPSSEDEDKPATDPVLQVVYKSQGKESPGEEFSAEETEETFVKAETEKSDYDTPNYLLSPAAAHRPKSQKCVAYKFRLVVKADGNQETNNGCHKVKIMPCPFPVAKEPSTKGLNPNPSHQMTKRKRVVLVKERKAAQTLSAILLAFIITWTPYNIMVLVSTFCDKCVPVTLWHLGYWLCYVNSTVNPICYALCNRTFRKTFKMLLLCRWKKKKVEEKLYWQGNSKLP
# T16 sequence (Q9HB89 whole entry): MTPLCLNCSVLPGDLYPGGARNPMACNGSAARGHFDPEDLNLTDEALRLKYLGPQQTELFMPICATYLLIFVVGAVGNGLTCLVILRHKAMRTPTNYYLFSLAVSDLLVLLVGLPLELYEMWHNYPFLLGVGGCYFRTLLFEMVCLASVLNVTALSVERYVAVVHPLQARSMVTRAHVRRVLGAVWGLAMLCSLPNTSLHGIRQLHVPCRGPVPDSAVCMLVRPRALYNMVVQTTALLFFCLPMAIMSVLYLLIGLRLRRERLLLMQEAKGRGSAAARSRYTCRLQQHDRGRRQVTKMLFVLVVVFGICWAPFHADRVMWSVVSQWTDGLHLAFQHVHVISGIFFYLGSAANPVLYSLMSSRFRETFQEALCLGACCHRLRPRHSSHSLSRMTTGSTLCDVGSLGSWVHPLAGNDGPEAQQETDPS
# T10 sequence (P31391 whole entry): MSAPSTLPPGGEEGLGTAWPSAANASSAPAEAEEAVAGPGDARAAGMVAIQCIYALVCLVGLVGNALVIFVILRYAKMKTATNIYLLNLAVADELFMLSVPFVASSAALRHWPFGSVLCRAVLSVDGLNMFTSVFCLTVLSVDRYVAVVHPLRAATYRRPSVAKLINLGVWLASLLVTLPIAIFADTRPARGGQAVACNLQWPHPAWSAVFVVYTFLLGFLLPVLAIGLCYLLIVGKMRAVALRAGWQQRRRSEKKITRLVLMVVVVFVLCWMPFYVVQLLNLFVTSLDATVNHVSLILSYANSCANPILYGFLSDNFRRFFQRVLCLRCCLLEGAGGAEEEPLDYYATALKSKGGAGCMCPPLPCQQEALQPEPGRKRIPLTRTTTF
smiles,measurement,setting,value
"OC[C@H]1O[C@@H](n2cnc3c(NCc4ccc(O)cc4)ncnc32)[C@H](O)[C@@H]1O [T1-11, N ^6-(4-hydroxybenzyl)adenine riboside]",inhibition at 10 µM,Cannabinoid CB1,-7%
same,inhibition at 10 µM,Somatostatin sst3,15%
same,GTP binding compared to 2-Cl-IB-MECA (3 µM),human A3R; 100 µM T1-11,less than 50%
same,Function,"human A3R; A3 adenosine receptor, GTPγS binding, n.s. = not significant",n.s.
same,inhibition at 10 µM,Lipoxygenase 12-LO,9%
same,inhibition at 10 µM,Chemokine CXCR2 (IL-8RB),0%
same,inhibition at 10 µM,Glucocorticoid,-10%
same,% Inhibition,Potassium Channel [KA],1%
same,inhibition at 10 µM,Dopamine D5,2%
same,inhibition at 10 µM,[1],15%
same,inhibition at 10 µM,Dopamine D3,-7%
same,inhibition at 10 µM,Somatostatin sst4,5%
same,% Inhibition,[2],10%
same,inhibition at 10 µM,[3],-7%
same,inhibition at 10 µM,Prostanoid CRTH2,0%
same,inhibition at 10 µM,Melanocortin MC3,3%
same,inhibition at 10 µM,"A1 adenosine receptor; 10 μM T1-11, n 2",23%
same,IC50,A1 adenosine receptor; [5],n.s.
same,Ki,A1 adenosine receptor; [5],n.s.
same,inhibition at 10 µM,Chemokine CCR2B,0%
same,inhibition at 10 µM,Neuromedin U NMU1,-1%
same,inhibition at 10 µM,"A3 adenosine receptor; 10 μM T1-11, n 2",103%
same,pIC50,A3 adenosine receptor; [6],6.96
same,pKi,A3 adenosine receptor; [6],7.00
same,% Inhibition,[4],-2%
same,inhibition at 10 µM,Muscarinic M5,0%
same,inhibition at 10 µM,Anaphylatoxin C5a,2%
same,inhibition at 10 µM,Phosphodiesterase PDE3,0%
